Patent US20040260060A1, “Constructs modified downstreams of the initiation codon for recombinant protein” (priority 2000, published 2004)

Key:
TOP10 x pTEXCAT bacteria = experiment: Chloramphenicol resistance of TOP10 x pTEXCAT bacteria on agar dishes, colony count and growth; type: cell-based, E. coli; set-up: key to qualitative criterion of colony growth: −: absence of growth; +++: maximum growth; details: for number of colonies counted: 18 h at 37° C., approximately 100 cells seeded
Procedure: The libraries are screened based on the hypothesis that the clones overexpressing the CAT enzyme will have increased resistance to chloramphenicol.
The numbers (upper row) indicate the number of colonies counted after incubation for 18 h at 37° C., each medium having been seeded with approximately 100 cells.
The index of the lower row is a qualitative criterion of colony growth (−=absence of growth to +++=maximum growth).
This implies that clones which overproduce CAT due to an optimized RBS region may either develop more rapidly than the wild-type population at a chloramphenicol concentration lower than the MIC (mininimum inhibitory concentration), or develop in the presence of chloramphenicol concentrations which are lethal for the wild-type population.

[1] = system: chloramphenicol acetyltransferase (CAT) reporter gene; experiment: Level of CAT expression by ELISA after IAA induction in Erlenmeyer flask cultures; type: cell-based, E. coli; details: for CAT expression: relative to wild-type vector pTEXwt = 1
Description: The supernatant is marked “S”.
The results (mean±standard deviation) were obtained on two independent experiments. […]
The methods for determining the expression are those used in the examples above.

[2] = system: chloramphenicol acetyltransferase (CAT); details: IAA-induced extracts
Description: The resistant colonies are isolated and subcultured several times on the selection medium in order to confirm their resistance phenotype. The clones selected at this stage are then subjected to a series of analyses: (i) extraction of the plasmid (Qiagen kit, Hilden, Germany) and sequencing of the region covering the RBS, (ii) culturing in Erlenmeyer flasks with induction by IAA and then estimation of the level of CAT expression by ELISA assay, (iii) electrophoresis, by SDS-PAGE, of the total proteins extracted from the preceding cultures and staining with Coomassie Blue to visualize total intracellular proteins. The clones are sequenced using the Dye Terminator kit on an ABI 373A sequencer (Perkin Elmer Applied Biosystems, Foster City, Calif.). The cultures in Erlenmeyer flasks are prepared by seeding 25 ml of TSBY (30 g/l tryptic soy broth (DIFCO)+5 g/l yeast extract (Difco)) medium+8 mg/l tetracycline with a colony on a dish or with a bacterial suspension stored at −80° C. Each preculture is incubated on a platform shaken at 200 rpm, at 37° C. overnight. A fraction is transferred into 50 ml of the same medium so as to reach an initial optical density equal to 1. […] The total proteins contained in the I and S fractions are analyzed by electrophoresis under denaturing conditions (SDS-PAGE) and staining with Coomassie Blue.

[3] = chloramphenicol 200 μg/ml, IAA = 0
[4] = chloramphenicol 200 μg/ml, IAA = 25 μg/ml
[5] = chloramphenicol 300 μg/ml, IAA = 25 μg/ml
[6] = chloramphenicol 600 μg/ml, IAA = 0
[7] = chloramphenicol 600 μg/ml, IAA = 25 μg/ml
[8] = chloramphenicol 700 μg/ml, IAA = 0
[9] = chloramphenicol 700 μg/ml, IAA = 25 μg/ml
[10] = chloramphenicol 800 μg/ml, IAA = 0
[11] = chloramphenicol 800 μg/ml, IAA = 25 μg/ml

## O=C(N[C@H](CO)[C@H](O)c1ccc([N+](=O)[O-])cc1)C(Cl)Cl [Chloramphenicol, chloramphenicol]
TOP10 x pTEXCAT bacteria; [3]
  qualitative criterion of colony growth: +++
  number of colonies counted: 91
TOP10 x pTEXCAT bacteria; [4]
  qualitative criterion of colony growth: +++
  number of colonies counted: 65
TOP10 x pTEXCAT bacteria; chloramphenicol 300 μg/ml, IAA = 0
  number of colonies counted: 74
TOP10 x pTEXCAT bacteria; [5]
  qualitative criterion of colony growth: +++
  number of colonies counted: 76
TOP10 x pTEXCAT bacteria; chloramphenicol 400 μg/ml, IAA = 0
  number of colonies counted: 73
TOP10 x pTEXCAT bacteria; chloramphenicol 400 μg/ml, IAA = 25 μg/ml
  number of colonies counted: 53
TOP10 x pTEXCAT bacteria; chloramphenicol 500 μg/ml, IAA = 0
  number of colonies counted: 47
TOP10 x pTEXCAT bacteria; chloramphenicol 500 μg/ml, IAA = 25 μg/ml
  number of colonies counted: 71
TOP10 x pTEXCAT bacteria; [6]
  qualitative criterion of colony growth: −
  number of colonies counted: 0
TOP10 x pTEXCAT bacteria; [7]
  qualitative criterion of colony growth: −
  number of colonies counted: 1
TOP10 x pTEXCAT bacteria; [8]
  qualitative criterion of colony growth: −
  number of colonies counted: 0
TOP10 x pTEXCAT bacteria; [9]
  qualitative criterion of colony growth: −
  number of colonies counted: 0
TOP10 x pTEXCAT bacteria; [10]
  qualitative criterion of colony growth: −
  number of colonies counted: 0
TOP10 x pTEXCAT bacteria; [11]
  qualitative criterion of colony growth: −
  number of colonies counted: 0

## pTEX11′: vector derived from pTEX9′ with additional deletion, SEQ ID No. 35 (DNA UGAGGAGAGUAAUCAUGAAAGAAUUC)
[1]
  CAT expression: 124

## pTEX9′: clone from the (R7N6) library, SEQ ID No. 31, deletion of region Ile4Asn8 (DNA UGAGGAGAGUAAUCAUGAAAGCAGCGGAAUUC; expressed or natural sequence)
[1]
  CAT expression: 249

## pTEX10′: vector derived from pTEX9′ with additional deletion, SEQ ID No. 33 (DNA UGAGGAGAGUAAUCAUGAAAGCAGAAUUC)
[1]
  CAT expression: 253

## pTEXCAT: wild-type reference plasmid: pTEXmp18 (Ptrp promoter, TrpL leader) with the CAT reporter gene cloned at EcoRI/PstI; SEQ ID No. 19 (DNA AAGGGUAUCUAGAAUUAUGAAAGCAAUUUUCGUACUGAAUGCGGAAUUC)
[1]
  CAT expression: 1
[1]; relative, level 1 arbitrarily assigned to pTEXCAT, mean±standard deviation of two independent experiments
  Level of CAT expression: 1
[2]
  CAT band (28 kDa) on SDS-PAGE gel: only a band of low intensity

## O=C(O)C=Cc1c[nH]c2ccccc12 [IAA, 3-β indole acrylic acid]
TOP10 x pTEXCAT bacteria; between 300 and 600 μg/ml of chloramphenicol
  development of TOP10 x pTEXCAT bacteria in the presence of IAA versus its absence: more strongly

## pTEX12′: vector derived from pTEX9′, initiation codon directly upstream of the cloning site, SEQ ID No. 37 (DNA UGAGGAGAGUAAUCAUGGAAUUC)
[1]
  CAT expression: 155
